Source: ChEMBL document CHEMBL3393028, “Discovery and characterization of MAPK-activated protein kinase-2 prevention of activation inhibitors” (J Med Chem, 2015)
Converted amounts (≈) assume the structure as drawn. The source made the active and inactive calls. No cut-off for these calls is given here.

Experiments:
[1] = target: T1, Mitogen-activated protein kinase 14 (Homo sapiens, UniProt Q16539); assay: Inhibition of human recombinant 5'-c-myc, His6-tagged p38-alpha using MSK1 as substrate assessed as inhibition of phosphorylation after 60 mins by ELISA in presence of ATP
T1 sequence (Q16539 whole entry): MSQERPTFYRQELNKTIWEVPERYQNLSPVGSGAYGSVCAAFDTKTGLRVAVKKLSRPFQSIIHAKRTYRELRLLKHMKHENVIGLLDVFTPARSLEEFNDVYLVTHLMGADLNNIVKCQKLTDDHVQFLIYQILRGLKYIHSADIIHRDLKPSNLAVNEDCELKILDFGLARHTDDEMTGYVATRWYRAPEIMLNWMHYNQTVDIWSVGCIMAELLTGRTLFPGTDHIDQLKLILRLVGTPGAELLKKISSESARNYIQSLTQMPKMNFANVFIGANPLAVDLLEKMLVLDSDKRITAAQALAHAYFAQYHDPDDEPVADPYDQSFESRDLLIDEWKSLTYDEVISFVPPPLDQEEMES

[2] = target: T1, Mitogen-activated protein kinase 14; assay: Inhibition of human recombinant 5'-c-myc, His6-tagged p38-alpha using MK2 (46 to 400) as substrate assessed as inhibition of phosphorylation after 60 mins by ELISA in presence of ATP
[3] = target: T1, Mitogen-activated protein kinase 14; assay: Inhibition of p38-alpha (unknown origin) by p38alpha-MBP IoC assay
Cytochrome P450 3A4 = Cytochrome P450 3A4 (Homo sapiens, UniProt P08684); assay: Inhibition of CYP3A4 (unknown origin); assay type: ADME
Chain of Cytochrome P450 3A4 (P08684 whole entry): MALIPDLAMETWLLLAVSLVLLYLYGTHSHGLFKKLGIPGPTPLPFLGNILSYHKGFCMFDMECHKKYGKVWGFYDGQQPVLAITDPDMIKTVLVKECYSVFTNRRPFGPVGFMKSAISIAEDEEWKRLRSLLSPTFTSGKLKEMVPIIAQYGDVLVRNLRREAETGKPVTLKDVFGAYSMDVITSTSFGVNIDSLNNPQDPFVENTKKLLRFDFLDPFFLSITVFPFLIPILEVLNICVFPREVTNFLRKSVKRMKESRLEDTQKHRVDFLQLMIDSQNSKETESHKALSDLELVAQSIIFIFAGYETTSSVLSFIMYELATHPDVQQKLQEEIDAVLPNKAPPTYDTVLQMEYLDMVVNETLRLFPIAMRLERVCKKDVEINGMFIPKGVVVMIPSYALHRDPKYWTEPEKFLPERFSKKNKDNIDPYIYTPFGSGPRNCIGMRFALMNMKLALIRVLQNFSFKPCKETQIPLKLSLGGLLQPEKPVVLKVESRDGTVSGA

[4] = target: T1, Mitogen-activated protein kinase 14; assay: Inhibition of p38-alpha in human TC28 cells assessed as inhibition of IL-1-induced PGE2 production incubated for 20 mins prior to IL-1 challenge measured after 24 hrs by ELISA; assay type: cell-based
[5] = Intrinsic clearance in human liver microsomes; assay type: ADME; conditions: read-out: CLH
[6] = Fraction unbound in rat plasma by equilibrium dialysis method; assay type: ADME, cell-free
[7] = Lipophilicity, log D of the compound at pH 7.4; assay type: physicochemical; conditions: buffer
[8] = Intrinsic clearance in rat hepatocytes assessed per 10^6 cells; assay type: ADME, cell-based, Hepatocyte; conditions: read-out: CLH
[9] = Thermodynamic solubility of the compound at pH 7.4; assay type: physicochemical; conditions: buffer, read-out: Therm_solubility
[10] = Fraction unbound in human plasma by equilibrium dialysis method; assay type: ADME, cell-free
[11] = target: T1, Mitogen-activated protein kinase 14; assay: Inhibition of p38-alpha in human PBMC assessed as inhibition of LPS-induced TNF-alpha production incubated for 30 mins prior to LPS challenge measured after 7 hrs by ELISA
[12] = target: MAP kinase-activated protein kinase 2 (Homo sapiens) (UniProt P49137); assay: Binding affinity to phosphorylated full length 2H,15N-labeled MK2 (unknown origin) expressed in Escherichia coli by 2D-NMR analysis
Chain of MAP kinase-activated protein kinase 2 (Homo sapiens) (P49137 whole entry, looked up): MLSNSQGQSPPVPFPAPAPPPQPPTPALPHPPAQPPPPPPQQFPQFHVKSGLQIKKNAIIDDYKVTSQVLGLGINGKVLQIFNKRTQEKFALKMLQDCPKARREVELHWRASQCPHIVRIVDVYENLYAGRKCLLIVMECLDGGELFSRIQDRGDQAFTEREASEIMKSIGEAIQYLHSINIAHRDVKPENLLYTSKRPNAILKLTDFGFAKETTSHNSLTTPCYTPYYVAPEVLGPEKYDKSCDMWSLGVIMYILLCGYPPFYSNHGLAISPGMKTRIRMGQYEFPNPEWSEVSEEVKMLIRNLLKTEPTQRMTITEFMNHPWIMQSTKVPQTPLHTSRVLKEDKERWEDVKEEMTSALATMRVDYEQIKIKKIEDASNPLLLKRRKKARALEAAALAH

[13] = target: T1, Mitogen-activated protein kinase 14; assay: Competitive inhibition of human recombinant 5'-c-myc, His6-tagged p38-alpha using MK2 (46-400) as substrate
[14] = target: T1, Mitogen-activated protein kinase 14; assay: Displacement of 1-[7-[3-[4-(aminomethyl)-1-piperidyl]propoxy]-6-methoxy-quinazolin-4-yl]-3-(2-chloro-6-methylphenyl)urea from GST-tagged phosphorylated p38-alpha (unknown origin) by surface plasmon resonance based ISA method
[15] = target: Insulin-like growth factor 1 receptor (Homo sapiens) (UniProt P08069); conditions: 10 uM
Chain of Insulin-like growth factor 1 receptor (Homo sapiens) (P08069 31-736 limits assumed): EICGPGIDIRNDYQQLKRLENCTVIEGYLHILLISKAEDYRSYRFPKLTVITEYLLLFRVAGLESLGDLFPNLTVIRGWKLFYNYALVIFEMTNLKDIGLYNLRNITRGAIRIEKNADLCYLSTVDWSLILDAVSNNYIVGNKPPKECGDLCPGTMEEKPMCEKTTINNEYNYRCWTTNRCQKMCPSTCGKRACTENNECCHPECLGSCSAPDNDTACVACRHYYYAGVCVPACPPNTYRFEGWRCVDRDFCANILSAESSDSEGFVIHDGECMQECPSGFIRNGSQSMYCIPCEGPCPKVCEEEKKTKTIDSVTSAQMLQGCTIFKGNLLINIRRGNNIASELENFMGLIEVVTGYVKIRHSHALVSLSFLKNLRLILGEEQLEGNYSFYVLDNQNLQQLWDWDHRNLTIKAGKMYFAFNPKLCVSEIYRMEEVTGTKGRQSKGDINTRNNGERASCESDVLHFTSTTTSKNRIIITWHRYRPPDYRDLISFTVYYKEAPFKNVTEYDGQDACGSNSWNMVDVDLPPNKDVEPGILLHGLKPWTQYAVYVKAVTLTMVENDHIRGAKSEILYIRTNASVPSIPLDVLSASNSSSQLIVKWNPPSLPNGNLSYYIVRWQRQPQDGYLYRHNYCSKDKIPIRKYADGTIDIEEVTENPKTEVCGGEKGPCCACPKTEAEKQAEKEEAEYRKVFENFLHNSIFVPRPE
Chain of Insulin-like growth factor 1 receptor (Homo sapiens) (P08069 741-1367 limits assumed): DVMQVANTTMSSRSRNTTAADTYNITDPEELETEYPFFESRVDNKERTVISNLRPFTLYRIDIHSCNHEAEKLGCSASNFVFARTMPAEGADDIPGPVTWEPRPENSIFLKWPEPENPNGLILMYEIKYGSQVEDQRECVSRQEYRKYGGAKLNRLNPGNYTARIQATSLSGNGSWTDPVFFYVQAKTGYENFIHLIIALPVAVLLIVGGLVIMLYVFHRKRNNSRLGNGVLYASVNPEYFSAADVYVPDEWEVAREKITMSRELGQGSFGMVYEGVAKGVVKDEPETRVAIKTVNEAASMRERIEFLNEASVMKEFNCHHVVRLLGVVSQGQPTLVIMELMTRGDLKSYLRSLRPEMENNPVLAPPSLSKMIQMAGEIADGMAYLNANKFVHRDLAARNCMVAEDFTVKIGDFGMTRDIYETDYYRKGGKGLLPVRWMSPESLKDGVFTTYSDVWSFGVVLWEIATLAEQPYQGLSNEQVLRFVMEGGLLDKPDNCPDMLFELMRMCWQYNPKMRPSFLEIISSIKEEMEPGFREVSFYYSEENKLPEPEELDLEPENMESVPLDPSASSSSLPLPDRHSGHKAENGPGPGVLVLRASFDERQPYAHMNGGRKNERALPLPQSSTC
Description: Inhibition of IGF1R (unknown origin) at 10 uM

IC50 [1] [nM] | IC50 [2] [nM] | IC50 [3] [nM] | IC50 (Cytochrome P450 3A4) [nM] | Structure (SMILES) | other results
20000 | 390 | > 10000 |  | CCCc1c(C(=O)Nc2cc(S(=O)(=O)N(C)C)ccc2C)cnn1-c1ccc(Cl)cc1 | 
> 100000 | 450 | > 10000 | > 10000 | N#Cc1ccccc1Oc1ccc(C(=O)NCc2ccccc2)cc1 | IC50 [4]: 1400 nM
2300 | 2100 | > 10000 | 1000 | O=C(NCc1ccncc1)c1ccc(Oc2ccc(F)cc2)cc1 | 
5400 | 2000 | > 10000 |  | Cc1ccccc1Oc1ccc(C(=O)NCc2ccncc2)cc1 | 
1700 | 1700 | > 10000 |  | O=C(NCc1ccncc1)c1ccc(Oc2ccccc2Cl)cc1 | 
890 | 15 | > 10000 |  | CCCc1c(C(=O)Nc2cc(C#N)ccc2C)cnn1-c1ccccc1 | IC50 [4]: 210 nM
21000 | 600 | > 10000 | 1000 | N#Cc1ccccc1Oc1ccc(C(=O)NCc2ccncc2)cc1 | microsomal CLint [5]: < 2 µL/min/mg; Activity [12]: inactive; fraction unbound [6]: 0.14; Ki [13]: 290 nM; hepatocyte CLint [8]: 28 µL/min/1e6 cells; IC50 [11]: 5400 nM; Kd [14]: > 20000 nM; inhibition [15]: 30%; solubility thermodynamic [9]: 120 µM (≈ 39.5 µg/mL); IC50 [4]: 25000 nM; fraction unbound [10]: 0.085
> 100000 | 2800 | > 10000 | > 10000 | N#Cc1ccccc1Oc1ccc(C(=O)NCc2ccncn2)cc1 | microsomal CLint [5]: < 2 µL/min/mg; fraction unbound [6]: 0.2; hepatocyte CLint [8]: 23 µL/min/1e6 cells; solubility thermodynamic [9]: 360 µM (≈ 119 µg/mL); IC50 [4]: 7100 nM; fraction unbound [10]: 0.27

Continued, compound first:

Structure (SMILES) | IC50 [1] [nM] | IC50 [2] [nM] | IC50 [3] [nM] | IC50 (Cytochrome P450 3A4) [nM] | other results
CCCc1c(C(=O)Nc2cc(C(=O)OC)ccc2C)cnn1-c1ccccc1 | 500 | 490 | > 10000 |  | 
CCCc1c(C(=O)Nc2cc(O)ccc2C)cnn1-c1ccccc1 | < 46 | < 46 | > 10000 |  | 
O=C(NCc1ccncc1)c1ccc(Oc2ccc(Cl)cc2)cc1 | 10000 | 2400 | > 10000 | 1000 | 
CCCc1c(C(=O)Nc2cc(S(=O)(=O)N(C)C)ccc2C)cnn1Cc1ccccc1 | 6300 | 53 | > 10000 |  | 
CCCc1c(C(=O)Nc2cc(F)ccc2C)cnn1-c1ccccc1 | 2500 | 110 | > 10000 |  | 
CCCc1c(C(=O)Nc2cc(S(=O)(=O)N(C)C)ccc2C)cnn1-c1cccnc1 | > 30000 | 270 | > 10000 |  | microsomal CLint [5]: 143 µL/min/mg; fraction unbound [6]: 0.24; logD [7]: 2.3; hepatocyte CLint [8]: 10 µL/min/1e6 cells; solubility thermodynamic [9]: 21 µM (≈ 8.98 µg/mL); fraction unbound [10]: 0.26
CCCc1c(C(=O)Nc2cc(C(=O)O)ccc2C)cnn1-c1ccccc1 | 4200 | 86 | > 10000 |  | IC50 [11]: 21000 nM
CCCc1c(C(=O)Nc2cc(S(=O)(=O)N(C)C)ccc2C)cnn1-c1ccccc1 |  |  |  |  | microsomal CLint [5]: 62 µL/min/mg; Activity [12]: inactive; fraction unbound [6]: 0.031; hepatocyte CLint [8]: 42 µL/min/1e6 cells; inhibition [15]: 30%; solubility thermodynamic [9]: 0.55 µM (≈ 0.235 µg/mL); fraction unbound [10]: 0.023
CCCc1c(C(=O)Nc2cc(OCc3ccccc3)ccc2C)cnn1-c1ccccc1 | > 100000 | > 100000 | > 10000 |  | 
CCCc1c(C(=O)Nc2cc(S(C)(=O)=O)ccc2C)cnn1-c1ccccc1 | 23000 | 190 | > 10000 |  | 
CCCc1c(C(=O)Nc2cc(S(=O)(=O)N(C)C)ccc2C)cnn1CC(C)C | 5400 | 76 | > 10000 |  | 
N#Cc1ccccc1Oc1ccc(C(=O)NCc2cccnc2)cc1 | 15000 | 560 | > 10000 | > 10000 | IC50 [4]: 4700 nM
